Measured values: paper PMC4084896 (PLoS ONE, 2014)
Where two headings read alike, the source gives them in different places.

Experiments:
[1] = molecular target: T1, aryl hydrocarbon receptor AhR (Homo sapiens, UniProt P35869); assay: AhR gene reporter assay in AZ-AHR cells, agonist mode; assay type: cell-based; conditions: for EC50: 24 h, agonist mode
T1 construct: endogenous in cells; host or cells: AZ-AHR (stably transfected reporter line derived from HepG2)
T1 sequence (P35869 11-848): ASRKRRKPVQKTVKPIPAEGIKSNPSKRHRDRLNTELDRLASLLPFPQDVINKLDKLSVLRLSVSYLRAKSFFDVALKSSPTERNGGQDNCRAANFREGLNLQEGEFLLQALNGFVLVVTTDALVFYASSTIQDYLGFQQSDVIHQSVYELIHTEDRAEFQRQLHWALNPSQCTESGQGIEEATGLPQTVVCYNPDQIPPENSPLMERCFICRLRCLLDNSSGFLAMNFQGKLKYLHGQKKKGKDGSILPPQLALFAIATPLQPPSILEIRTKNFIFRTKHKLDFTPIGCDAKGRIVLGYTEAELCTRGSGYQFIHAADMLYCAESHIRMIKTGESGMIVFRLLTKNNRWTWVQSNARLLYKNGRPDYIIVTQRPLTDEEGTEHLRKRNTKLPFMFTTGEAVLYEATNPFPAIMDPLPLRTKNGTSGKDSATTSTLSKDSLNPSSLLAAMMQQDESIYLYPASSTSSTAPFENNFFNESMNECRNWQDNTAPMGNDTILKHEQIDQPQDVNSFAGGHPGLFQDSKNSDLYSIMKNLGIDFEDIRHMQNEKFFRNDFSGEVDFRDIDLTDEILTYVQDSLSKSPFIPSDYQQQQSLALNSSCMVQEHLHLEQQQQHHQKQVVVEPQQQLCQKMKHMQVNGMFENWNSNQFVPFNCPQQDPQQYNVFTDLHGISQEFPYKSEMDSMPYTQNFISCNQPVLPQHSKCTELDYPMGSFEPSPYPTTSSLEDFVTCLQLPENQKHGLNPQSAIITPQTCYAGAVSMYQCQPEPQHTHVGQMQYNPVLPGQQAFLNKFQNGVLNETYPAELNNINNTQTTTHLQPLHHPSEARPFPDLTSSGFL
From the text: A stably transfected gene reporter cell line AZ-AHR, derived from human hepatoma HepG2 cells transfected with a construct containing several AhR binding sites upstream of a luciferase reporter gene, was used for assessment of AhR transcriptional activity. A stably transfected gene reporter cell line AZ-GR, derived from human cervix carcinoma HeLa cells transfected with a construct containing several GR response elements upstream of a luciferase reporter gene, was used for assessment of GR transcriptional activity. Cells were incubated for 24 h with tested compounds and/or vehicle (DMSO; 0.1% v/v), in the presence or absence of TCDD (5 nM; AZ-AHR cells) or DEX (100 nM; AZ-GR cells). After the treatments, cells were lysed and luciferase activity was measured. In parallel, cell viability was determined by conventional MTT test.
Gene reporter assays were performed in two different experimental layouts. In agonist mode, cells were treated with increasing concentrations of tested compounds, and the half-maximal effective concentrations (EC50) were calculated.

AhR = molecular target: T2, AhR (Mus musculus, UniProt P30561); assay: EMSA with nuclear extracts from Hepa-1c1c7 cells (AhR-ARNT-DRE complex); assay type: cell-based; conditions: Hepa-1c1c7 nuclear extracts, 50 µM, 2 h
T2 construct: endogenous in cells; host or cells: mouse hepatoma Hepa-1c1c7 cells (living cells treated 2 h, then nuclear extracts made)
Method: Electrophoretic mobility shift assay was performed in guinea pig cytosol and nuclear extract from mouse hepatoma cells. Hepa-1c1c7 cells were incubated for 2 h with tested compounds. Nuclear extracts procedure and EMSA analysis was performed as previously described (Soshilov & Denison; 2014). Guinea pig hepatic cytosol (8 mg/mL in HEDG) was incubated for 2 h in a room temperature water bath with tested compounds. An aliquot of the reaction was mixed with poly[dI•dC] and [^32P]-DRE (100.000 cpm), and AHR:DRE:[^32P]DRE complexes were resolved by gel retardation analysis, visualized by autoradiography and quantified by phosphorimager analysis (FujiFilm) of the dried gels.
We carried out the electrophoretic mobility shift assay (EMSA) to reveal whether effects of KET on AhR-CYP1A pathway involve transformation of AhR to DNA binding form, and whether these effects are enantiospecific. For this purpose, EMSA was performed in two experimental systems: (i) Hepatic guinea pig cytosol was treated for 2 hours with DMSO, 20 nM TCDD, (+)-KET, (−)-KET and commercial rac-KET (from Sigma) at 10 µM, 30 µM and 50 µM. All forms of KET transformed AhR to DNA binding form, but the activation was very weak and not statistically above background. There was a slightly stronger effect of (+)-KET and rac-KET as compared to (−)-KET, but the difference was not significant (Figure 4A). (ii) Since we obtained only weak signals in guinea pig liver cytosols, we also analyzed nuclear extracts from mouse hepatoma Hepa-1c1c7 cells treated for 2 hours with DMSO, TCDD (10 nM), (+)-KET (50 µM), (−)-KET (50 µM), commercial rac-KET (Sigma; 50 µM) or an equimolar mix of (+)/(−) enantiomers (50 µM total). […] The effects of (−)-KET were slightly stronger as compared to (+)-KET. […] In addition, we observed formation of the second band with lower molecular weight than AhR-ARNT-DRE, by purified KET enantiomers but not by TCDD and commercial KET.

T2 sequence (P30561 10-805 limits assumed): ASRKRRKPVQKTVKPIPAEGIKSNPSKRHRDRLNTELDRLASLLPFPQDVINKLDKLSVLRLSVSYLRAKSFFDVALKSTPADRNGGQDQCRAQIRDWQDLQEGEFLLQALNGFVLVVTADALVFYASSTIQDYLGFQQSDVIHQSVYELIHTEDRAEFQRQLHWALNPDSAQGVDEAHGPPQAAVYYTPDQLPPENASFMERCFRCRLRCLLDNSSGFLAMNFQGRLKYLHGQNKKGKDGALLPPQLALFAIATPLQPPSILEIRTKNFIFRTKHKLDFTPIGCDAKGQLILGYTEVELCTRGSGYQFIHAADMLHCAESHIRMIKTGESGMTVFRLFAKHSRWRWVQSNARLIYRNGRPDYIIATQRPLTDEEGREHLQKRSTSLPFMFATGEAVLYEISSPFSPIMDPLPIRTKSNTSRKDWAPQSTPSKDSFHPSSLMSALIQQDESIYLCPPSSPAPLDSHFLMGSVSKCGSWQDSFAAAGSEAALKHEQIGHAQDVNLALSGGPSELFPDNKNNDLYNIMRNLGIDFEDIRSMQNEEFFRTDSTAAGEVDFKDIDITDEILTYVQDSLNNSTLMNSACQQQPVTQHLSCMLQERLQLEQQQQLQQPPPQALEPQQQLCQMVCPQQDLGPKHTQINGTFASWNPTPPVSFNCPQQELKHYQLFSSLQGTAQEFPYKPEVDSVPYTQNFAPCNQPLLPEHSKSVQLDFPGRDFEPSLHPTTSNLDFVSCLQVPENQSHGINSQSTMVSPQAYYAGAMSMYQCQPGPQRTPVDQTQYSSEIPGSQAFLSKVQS
T2 sequence (P53762 whole entry partner): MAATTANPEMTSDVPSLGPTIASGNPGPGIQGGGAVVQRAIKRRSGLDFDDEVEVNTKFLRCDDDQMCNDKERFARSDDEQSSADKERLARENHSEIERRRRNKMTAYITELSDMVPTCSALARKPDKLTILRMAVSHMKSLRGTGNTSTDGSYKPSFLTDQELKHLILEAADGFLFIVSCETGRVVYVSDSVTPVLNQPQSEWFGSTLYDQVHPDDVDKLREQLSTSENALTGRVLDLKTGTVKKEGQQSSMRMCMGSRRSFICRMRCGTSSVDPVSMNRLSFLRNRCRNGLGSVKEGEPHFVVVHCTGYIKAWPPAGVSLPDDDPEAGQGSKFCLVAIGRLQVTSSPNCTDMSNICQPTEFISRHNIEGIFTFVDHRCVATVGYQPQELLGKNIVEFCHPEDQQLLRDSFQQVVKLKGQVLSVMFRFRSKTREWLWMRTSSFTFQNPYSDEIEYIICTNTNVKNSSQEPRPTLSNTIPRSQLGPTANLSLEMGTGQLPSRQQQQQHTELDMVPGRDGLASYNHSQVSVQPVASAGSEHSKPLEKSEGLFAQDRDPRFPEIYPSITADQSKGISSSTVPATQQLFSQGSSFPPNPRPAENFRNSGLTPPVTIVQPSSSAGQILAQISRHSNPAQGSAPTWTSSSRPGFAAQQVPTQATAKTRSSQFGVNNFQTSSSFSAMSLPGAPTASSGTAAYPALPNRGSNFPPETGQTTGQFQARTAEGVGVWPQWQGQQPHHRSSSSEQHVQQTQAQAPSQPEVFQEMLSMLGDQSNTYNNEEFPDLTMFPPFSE

Compound	AZ-AHR gene reporter - agonist efficacy [1]	EC50 [1] [µM]	formation of AhR-ARNT-DRE complex, % of TCDD effects (AhR; TCDD 10 nM)	AZ-AHR gene reporter - agonist efficacy ([1]; average value printed in Figure 1B, relative to TCDD)	transformation of AhR to DNA binding form (in words) (AhR)
CC(=O)N1CCN(c2ccc(OCC3COC(Cn4ccnc4)(c4ccc(Cl)cc4Cl)O3)cc2)CC1 (racemic) [rac-KET, ketoconazole]	15,4 ± 9,4%	5.2	approx. 60%		
CC(=O)N1CCN(c2ccc(OC[C@H]3CO[C@](Cn4ccnc4)(c4ccc(Cl)cc4Cl)O3)cc2)CC1 [(+)-KET, (2R,4S)-(+)-KET]		3.2		23,5 ± 12,2%	only weakly transformed
